Laboratory results published in ChEMBL document CHEMBL3596127, “Design, synthesis and molecular docking of novel bipyrazolyl thiazolone scaffold as a new class of antibacterial agents” (Medchemcomm, 2014).
Values after ≈ are worked out from the molar mass of the structure shown.

Key:
Bacillus spizizenii = assay: Antibacterial activity against Bacillus subtilis ATCC 6633 after 24 hrs by MTT assay; assay type: functional; conditions: ATCC 6633, 24 h
Staphylococcus aureus = assay: Antibacterial activity against Staphylococcus aureus ATCC 6538 after 24 hrs by MTT assay; assay type: functional; conditions: ATCC 6538, 24 h
Escherichia coli = assay: Antibacterial activity against Escherichia coli ATCC 35218 after 24 hrs by MTT assay; assay type: functional; conditions: ATCC 35218, 24 h
Pseudomonas aeruginosa = assay: Antibacterial activity against Pseudomonas aeruginosa ATCC 13525 after 24 hrs by MTT assay; assay type: functional; conditions: ATCC 13525, 24 h
[1] = Inhibition of full-length N-terminal His-tagged Escherichia coli FabH expressed in Escherichia coli BL21 (DE3) using acetyl-CoA/[3H]-acetyl-CoA/holo-ACP as substrate by liquid scintillation counting analysis
[2] = Hemolytic activity in RBC (unknown origin); assay type: ADME, cell-based; conditions: erythrocyte

| Compound | MIC (Bacillus spizizenii) | MIC (Staphylococcus aureus) | MIC (Escherichia coli) | MIC (Pseudomonas aeruginosa) | IC50 [1] | LC30 [2] |
| --- | --- | --- | --- | --- | --- | --- |
| Cc1nn(-c2ccccc2)c(-n2ccnc2)c1C1CC(c2cccs2)=NN1C1=NC(=O)/C(=C/c2ccco2)S1 (configuration not stated) | 25 µg/mL (≈ 45.3 µM) | 6.25 µg/mL (≈ 11.3 µM) | 25 µg/mL (≈ 45.3 µM) | > 50 µg/mL | 12.8 µM | > 10000 µg/mL |
| Cc1nn(-c2ccccc2)c(-n2cncn2)c1C1CC(c2cccs2)=NN1C1=NC(=O)/C(=C/c2c[nH]c3ccccc23)S1 (configuration not stated) | 25 µg/mL (≈ 41.5 µM) | > 50 µg/mL | 12.5 µg/mL (≈ 20.8 µM) | > 50 µg/mL | 4.7 µM | > 10000 µg/mL |
| Cc1nn(-c2ccccc2)c(-n2ccnc2)c1C1CC(c2cccs2)=NN1C1=NC(=O)/C(=C/c2c[nH]c3ccccc23)S1 (configuration not stated) | 25 µg/mL (≈ 41.6 µM) | 50 µg/mL (≈ 83.2 µM) | 6.25 µg/mL (≈ 10.4 µM) | 3.13 µg/mL (≈ 5.21 µM) | 3.9 µM | > 10000 µg/mL |
| Cc1nn(-c2ccccc2)c(-n2cncn2)c1C1CC(c2cccs2)=NN1C1=NC(=O)/C(=C/c2ccco2)S1 (configuration not stated) | 25 µg/mL (≈ 45.2 µM) | > 50 µg/mL | 50 µg/mL (≈ 90.5 µM) | 50 µg/mL (≈ 90.5 µM) | 26.1 µM | > 10000 µg/mL |
| NC[C@H]1O[C@H](O[C@H]2[C@H](O)[C@@H](O[C@H]3O[C@H](CO)[C@@H](O)[C@H](N)[C@H]3O)[C@H](N)C[C@@H]2N)[C@H](N)[C@@H](O)[C@@H]1O [BEKANAMYCIN] | 0.39 µg/mL (≈ 0.807 µM) | 1.56 µg/mL (≈ 3.23 µM) | 1.56 µg/mL (≈ 3.23 µM) | 3.13 µg/mL (≈ 6.47 µM) | 6.3 µM | > 10000 µg/mL |
| CC1(C)S[C@@H]2[C@H](NC(=O)Cc3ccccc3)C(=O)N2[C@H]1C(=O)O [PENICILLIN G] | 1.56 µg/mL (≈ 4.67 µM) | 6.25 µg/mL (≈ 18.7 µM) | 3.13 µg/mL (≈ 9.36 µM) | 6.25 µg/mL (≈ 18.7 µM) | – | – |

More lines, main results first:

| MIC (Bacillus spizizenii) | MIC (Staphylococcus aureus) | MIC (Escherichia coli) | MIC (Pseudomonas aeruginosa) | IC50 [1] | Compound | LC30 [2] |
| --- | --- | --- | --- | --- | --- | --- |
| 12.5 µg/mL (≈ 19.2 µM) | 50 µg/mL (≈ 76.8 µM) | 3.13 µg/mL (≈ 4.81 µM) | 12.5 µg/mL (≈ 19.2 µM) | 2.5 µM | Cc1nn(-c2ccccc2)c(-n2cnc3ccccc32)c1C1CC(c2cccs2)=NN1C1=NC(=O)/C(=C/c2c[nH]c3ccccc23)S1 (configuration not stated) | > 10000 µg/mL |
| > 50 µg/mL | 25 µg/mL (≈ 38.4 µM) | 3.13 µg/mL (≈ 4.8 µM) | 6.25 µg/mL (≈ 9.59 µM) | 3.1 µM | Cc1nn(-c2ccccc2)c(-n2nnc3ccccc32)c1C1CC(c2cccs2)=NN1C1=NC(=O)/C(=C/c2c[nH]c3ccccc23)S1 (configuration not stated) | > 10000 µg/mL |
| 25 µg/mL (≈ 44 µM) | 6.25 µg/mL (≈ 11 µM) | 25 µg/mL (≈ 44 µM) | 50 µg/mL (≈ 87.9 µM) | 15.6 µM | Cc1nn(-c2ccccc2)c(-n2cncn2)c1C1CC(c2cccs2)=NN1C1=NC(=O)/C(=C/c2cccs2)S1 (configuration not stated) | > 10000 µg/mL |
| > 50 µg/mL | 25 µg/mL (≈ 44 µM) | > 50 µg/mL | 25 µg/mL (≈ 44 µM) | 11.3 µM | Cc1nn(-c2ccccc2)c(-n2ccnc2)c1C1CC(c2cccs2)=NN1C1=NC(=O)/C(=C/c2cccs2)S1 (configuration not stated) | > 10000 µg/mL |
| 3.13 µg/mL (≈ 5.07 µM) | 25 µg/mL (≈ 40.5 µM) | 25 µg/mL (≈ 40.5 µM) | 25 µg/mL (≈ 40.5 µM) | 9.1 µM | Cc1nn(-c2ccccc2)c(-n2cnc3ccccc32)c1C1CC(c2cccs2)=NN1C1=NC(=O)/C(=C/c2cccs2)S1 (configuration not stated) | > 10000 µg/mL |
| 12.5 µg/mL (≈ 20.2 µM) | > 50 µg/mL | 50 µg/mL (≈ 80.8 µM) | 6.25 µg/mL (≈ 10.1 µM) | 17.5 µM | Cc1nn(-c2ccccc2)c(-n2nnc3ccccc32)c1C1CC(c2cccs2)=NN1C1=NC(=O)/C(=C/c2cccs2)S1 (configuration not stated) | > 10000 µg/mL |
| 6.25 µg/mL (≈ 10.4 µM) | 12.5 µg/mL (≈ 20.8 µM) | > 50 µg/mL | > 50 µg/mL | 8.5 µM | Cc1nn(-c2ccccc2)c(-n2cnc3ccccc32)c1C1CC(c2cccs2)=NN1C1=NC(=O)/C(=C/c2ccco2)S1 (configuration not stated) | > 10000 µg/mL |
| > 50 µg/mL | 50 µg/mL (≈ 83 µM) | > 50 µg/mL | 6.25 µg/mL (≈ 10.4 µM) | 21.9 µM | Cc1nn(-c2ccccc2)c(-n2nnc3ccccc32)c1C1CC(c2cccs2)=NN1C1=NC(=O)/C(=C/c2ccco2)S1 (configuration not stated) | > 10000 µg/mL |
